# Source: patent US20240174655A1, “INDAZOLE DERIVATIVES AS ANTAGONISTS OF THE MUSCARINIC ACETYLCHOLINE RECEPTOR M4” (Vanderbilt University, priority 2021, published 2024)
# Target: T1, Human M4 (Homo sapiens, UniProt P08173)
# T1 construct: expressed in transfected cells; host or cells: CHO-K1 (Chinese hamster ovary, ATCC), stably expressing M4 and Gqi5
# T1 sequence (P08173 1-479): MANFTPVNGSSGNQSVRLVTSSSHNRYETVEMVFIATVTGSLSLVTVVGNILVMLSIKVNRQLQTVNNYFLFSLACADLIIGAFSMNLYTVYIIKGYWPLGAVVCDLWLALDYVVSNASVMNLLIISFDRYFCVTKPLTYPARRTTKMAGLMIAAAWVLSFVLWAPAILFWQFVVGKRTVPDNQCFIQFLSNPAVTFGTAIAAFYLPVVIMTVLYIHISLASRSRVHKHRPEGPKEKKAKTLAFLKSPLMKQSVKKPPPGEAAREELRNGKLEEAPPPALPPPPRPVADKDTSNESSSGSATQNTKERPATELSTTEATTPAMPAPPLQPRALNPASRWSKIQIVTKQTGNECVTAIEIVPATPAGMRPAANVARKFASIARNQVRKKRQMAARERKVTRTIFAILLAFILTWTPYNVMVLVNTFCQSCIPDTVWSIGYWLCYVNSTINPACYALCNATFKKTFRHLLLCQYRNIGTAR
# Assay: mAChR M4 cell-based functional assay (calcium flux, EC80 acetylcholine response)
# Settings: M4/Gqi5/CHO-K1 cells; for remaining activity at 30 µM: % ACh maximum at 30 μM, read-out: Human M4 Emin (% ACh maximum at 30 μM); for IC50: decrease of the response to an EC80 concentration of acetylcholine, read-out: Human M4 IC50
# Procedure: Human or rat M4 cDNA, along with the chimeric G protein Gqi5, were transfected into Chinese hamster ovary (CHO-K1) cells purchased from the American Type Culture Collection using Lipofectamine2000. M4/Gqi5/CHO cells were grown in Ham's F-12 medium containing […] heat-inactivated fetal bovine serum (FBS), 20 mM HEPES, 500 μg/mL G418 sulfate, and 200 μg/mL Hygromycin B.
# For high throughput measurement of agonist-evoked increases in intracellular calcium, CHO-K1 cells stably expressing muscarinic receptors were plated in growth medium lacking G418 and hygromycin at 15,000 cells/20 μL/well in Greiner 384-well black-walled, tissue culture (TC)-treated, clear-bottom plates (VWR). Cells were incubated overnight at 37° C. and 500 CO2. […] Compound master plates were formatted in a 10 point concentration-response curve (CRC) format (1:3 dilutions) in 100% DMSO with a starting concentration of 10 or 1 mM using a BRAVO liquid handler (Agilent). Test compound CRCs were then transferred to daughter plates (240 nL) using the Echo acoustic plate reformatter (Labcyte, Sunnyvale, CA) and then diluted into assay buffer (40 μL) to a 2× stock using a Thermo Fisher Combi (Thermo Fisher Scientific, Waltham, MA).
# Calcium flux was measured using the Functional Drug Screening System (FDSS) 6000 or 7000 (Hamamatsu Corporation, Tokyo, Japan) as an increase in the fluorescent static ratio. Compounds were applied to cells (20 μL, 2×) using the automated system of the FDSS at 2 seconds into the protocol and the data were collected at 1 Hz. […] Agonist activity was analyzed as a concentration-dependent increase in calcium mobilization upon compound addition. Positive allosteric modulator activity was analyzed as a concentration-dependent increase in the EC20 acetylcholine response. Antagonist activity was analyzed as a concentration-dependent decrease in the EC80 acetylcholine response; for the purposes of the tables herein, an IC50 (inhibitory concentration 50) was calculated as a concentration-dependent decrease of the response elicited by an EC80 concentration of acetylcholine. Concentration-response curves were generated using a four-parameter logistical equation in XLFit curve fitting software (IDBS, Bridgewater, NJ) for Excel (Microsoft, Redmond, WA) or Prism (GraphPad Software, Inc., San Diego, CA) or the Dotmatics software platform (Dotmatics, Bishop's Stortford, UK).
# Compounds were synthesized as described above.
remaining activity at 30 µM,IC50,Structure (SMILES)
3%,2.7 nM,"Cc1cc2nn(C)cc2cc1-c1ccc(N[C@H]2C[C@@H]3CN(CC4CCOCC4)C[C@@H]3C2)nn1 [compound 1, (3aR,5s,6aS)-N-(6-(2,6-dimethyl-2H-indazol-5-yl)pyridazin-3-yl)-2-((tetrahydro-2H-pyran-4-yl)methyl)octahydrocyclopenta[c]pyrrol-5-amine]"
4%,0.41 nM,"Cc1c(-c2ccc(N[C@H]3C[C@@H]4CN(CC5CCOCC5)C[C@@H]4C3)nn2)ccc2nn(C)cc12 [compound 2, (3aR,5s,6aS)-N-(6-(2,4-dimethyl-2H-indazol-5-yl)pyridazin-3-yl)-2-((tetrahydro-2H-pyran-4-yl)methyl)octahydrocyclopenta[c]pyrrol-5-amine]"
2%,0.33 nM,"[2H][C@@]1(Nc2ccc(-c3ccc4nn(C)cc4c3C)nn2)C[C@H]2CN(CC3CCOCC3)C[C@H]2C1 [compound 3, (3aR,5s,6aS)-N-(6-(2,4-dimethyl-2H-indazol-5-yl)pyridazin-3-yl)-2-((tetrahydro-2H-pyran-4-yl)methyl)octahydrocyclopenta[c]pyrrol-5-d-5-amine]"
3%,2.2 nM,"Cc1c(-c2ccc(N[C@H]3C[C@@H]4CN(Cc5ccccn5)C[C@@H]4C3)nn2)ccc2nn(C)cc12 [compound 4, (3aR,5s,6aS)-N-(6-(2,4-dimethyl-2H-indazol-5-yl)pyridazin-3-yl)-2-(pyridin-2-ylmethyl)octahydrocyclopenta[c]pyrrol-5-amine]"
3%,130 nM,"[2H]C([2H])([2H])N(c1cc(C(F)(F)F)c(-c2ccc3nn(C)cc3c2C)nn1)[C@H]1C[C@@H]2CN(CC3CCOCC3)C[C@@H]2C1 [compound 5, (3aR,5s,6aS)-N-(6-(2,4-dimethyl-2H-indazol-5-yl)-5-(trifluoromethyl)pyridazin-3-yl)-N-(methyl-d3)-2-((tetrahydro-2H-pyran-4-yl)methyl)octahydrocyclopenta[c]pyrrol-5-amine]"
3%,0.59 nM,"[2H]C([2H])(C1CCOCC1)N1C[C@H]2C[C@H](Nc3ccc(-c4ccc5nn(C)cc5c4C)nn3)C[C@H]2C1 [compound 6, (3aR,5s,6aS)-N-(6-(2,4-dimethyl-2H-indazol-5-yl)pyridazin-3-yl)-2-((tetrahydro-2H-pyran-4-yl)methyl-d2)octahydrocyclopenta[c]pyrrol-5-amine]"
3%,1.5 nM,"Cn1cc2c(C(F)(F)F)c(-c3ccc(N[C@H]4C[C@@H]5CN(CC6CCOCC6)C[C@@H]5C4)nn3)ccc2n1 [compound 7, (3aR,5s,6aS)-N-(6-(2-methyl-4-(trifluoromethyl)-2H-indazol-5-yl)pyridazin-3-yl)-2-((tetrahydro-2H-pyran-4-yl)methyl)octahydrocyclopenta[c]pyrrol-5-amine]"
10%,1.1 nM,"[2H]C([2H])(C1CCOCC1)N1C[C@H]2C[C@H](Nc3ccc(-c4ccc5nn(C)cc5c4C(F)(F)F)nn3)C[C@H]2C1 [compound 8, (3aR,5s,6aS)-N-(6-(2-methyl-4-(trifluoromethyl)-2H-indazol-5-yl)-pyridazin-3-yl)-2-((tetrahydro-2H-pyran-4-yl)methyl-d2)octahydrocyclopenta[c]pyrrol-5-amine]"
3%,0.37 nM,"[2H]C([2H])(C1CCOCC1)N1C[C@H]2C[C@H](Nc3ccc(-c4ccc5nn(C([2H])([2H])[2H])cc5c4C)nn3)C[C@H]2C1 [compound 9, (3aR,5s,6aS)-N-(6-(4-methyl-2-(methyl-d3)-2H-indazol-5-yl)pyridazin-3-yl)-2-((tetrahydro-2H-pyran-4-yl)methyl-d2)octahydrocyclopenta[c]pyrrol-5-amine]"
2%,0.36 nM,"[2H]C([2H])(C1CCOCC1)N1C[C@H]2C[C@H](Nc3ccc(-c4ccc5nn(C(F)F)cc5c4C)nn3)C[C@H]2C1 [compound 10, (3aR,5s,6aS)-N-(6-(2-(difluoromethyl)-4-methyl-2H-indazol-5-yl)pyridazin-3-yl)-2-((tetrahydro-2H-pyran-4-yl)methyl-d2)octahydrocyclopenta[c]pyrrol-5-amine]"
2%,0.41 nM,"[2H]C([2H])([C@H]1CCCCO1)N1C[C@H]2C[C@H](Nc3ccc(-c4ccc5nn(C)cc5c4C)nn3)C[C@H]2C1 [compound 11, (3aR,5s,6aS)-N-(6-(2,4-dimethyl-2H-indazol-5-yl)pyridazin-3-yl)-2-(((R)-tetrahydro-2H-pyran-2-yl)-methyl-d2)octahydrocyclopenta[c]pyrrol-5-amine]"
2%,0.36 nM,"[2H]C([2H])([C@@H]1CCCCO1)N1C[C@H]2C[C@H](Nc3ccc(-c4ccc5nn(C)cc5c4C)nn3)C[C@H]2C1 [compound 12, (3aR,5s,6aS)-N-(6-(2,4-dimethyl-2H-indazol-5-yl)pyridazin-3-yl)-2-(((S)-tetrahydro-2H-pyran-2-yl)methyl-d2)octahydrocyclopenta[c]pyrrol-5-amine]"
4%,0.49 nM,"[2H]C([2H])([C@@H]1CCCOC1)N1C[C@H]2C[C@H](Nc3ccc(-c4ccc5nn(C)cc5c4C)nn3)C[C@H]2C1 [compound 13, (3aR,5s,6aS)-N-(6-(2,4-dimethyl-2H-indazol-5-yl)pyridazin-3-yl)-2-(((S)-tetrahydro-2H-pyran-3-yl)methyl-d2)octahydrocyclopenta[c]pyrrol-5-amine]"
3%,0.79 nM,"[2H]C([2H])([C@H]1CCCOC1)N1C[C@H]2C[C@H](Nc3ccc(-c4ccc5nn(C)cc5c4C)nn3)C[C@H]2C1 [compound 14, (3aR,5s,6aS)-N-(6-(2,4-dimethyl-2H-indazol-5-yl)pyridazin-3-yl)-2-(((R)-tetrahydro-2H-pyran-3-yl)methyl-d2)octahydrocyclopenta-[c]pyrrol-5-amine]"
3%,0.42 nM,"[2H]C([2H])([C@H]1COCCO1)N1C[C@H]2C[C@H](Nc3ccc(-c4ccc5nn(C)cc5c4C)nn3)C[C@H]2C1 [compound 15, (3aR,5s,6aS)-2-(((S)-1,4-dioxan-2-yl)-methyl-d2)-N-(6-(2,4-dimethyl-2H-indazol-5-yl)-pyridazin-3-yl)octahydrocyclopenta[c]pyrrol-5-amine]"
3%,8.9 nM,"[2H]C([2H])([C@@H]1COCCO1)N1C[C@H]2C[C@H](Nc3ccc(-c4ccc5nn(C)cc5c4C)nn3)C[C@H]2C1 [compound 16, (3aR,5s,6aS)-2-(((R)-1,4-dioxan-2-yl)-methyl-d2)-N-(6-(2,4-dimethyl-2H-indazol-5-yl)pyridazin-3-yl)octahydrocyclopenta[c]pyrrol-5-amine]"
3%,0.9 nM,"[2H]C([2H])(C1CCOCC1(C)C)N1C[C@H]2C[C@H](Nc3ccc(-c4ccc5nn(C)cc5c4C)nn3)C[C@H]2C1 (stereo partly drawn) [compound 17, (3aR,5s,6aS)-N-(6-(2,4-dimethyl-2H-indazol-5-yl)pyridazin-3-yl)-2-((3,3-dimethyltetrahydro-2H-pyran-4-yl)methyl-d2)octahydrocyclopenta[c]pyrrol-5-amine]"
